Laboratory results taken from PMC11643690, “Chelating Properties of N6O-Donors Toward Cu(II) Ions: Speciation in Aqueous Environments and Catalytic Activity of the Dinuclear Complexes” (Molecules, 2024).

Legend:
[1] = UV–Vis titration of ligands with Cu(ClO4)2, binding constant by non-linear regression; conditions: global formation constant β1,2 (1 ligand : 2 Cu(II)); 1 µM ligand, 5% v/v MeOH/BBS 50 mM, pH 7.4, 25 °C
Protocol: To determine the overall equilibrium constant β1,2 (Kbind), a solution of the ligand was titrated with aliquots of 0.2 equivalents of Cu(II). Monitoring the formation of the complex via UV–Vis spectroscopy, the absorbance around 260 nm, 300 nm, 450 nm, and 700 nm increased during the titration (Figure 3a) in all cases. The latter two bands are visible only at high concentrations (>0.1 mM). These changes are caused by the formation of the complex and the disappearance of the free ligand.
In Figure 3b, the linear increase in the absorbance change (ΔAbs) at 240 nm, upon an increase in Cu(II) amount, is evident, leading to a sharp plateau around 2 equivalents. […] The binding constants were determined by non-linear regression analysis of Equation (2), (2) ∆A/b=(K1∆A1Cu+ β1,2∆A2Cu^2)/1+K1Cu+ β1,2Cu^2 which traces the correlation “ΔAbs/b vs. Cu(II) concentration,” according to K. Connors. In this equation, ΔA is the differences in absorbance at a certain wavelength, b is the optical path (1 cm), K1 is the constant for the formation of the complex 1:1, and β1,2 is the global formation constant (Kbind) for the complex 1:2. ΔA1 and ΔA2 are the differences in absorbance due to the formation of the 1:1 complex and the 1:2 complex, respectively. […]
UV-vis spectra of ligands and complexes were recorded in a quartz cuvette, with 1 cm of optical path. […]

[2] = Peroxidase-like (pro-oxidant) activity, OPD oxidation to DAP by H2O2; format: biochemical; conditions: 3.2 μM complex or salt, 0.32 mM OPD, 24 mM H2O2, PBS pH 7.8, 18 h, 25 °C
Excerpt: The pro-oxidant activity is named after another enzyme, the peroxidase. It is important to underline that this is a drawback of the studied complexes. Peroxidase, such as the already described […], decomposes hydrogen peroxide, producing water, but at the cost of oxidizing another substrate. Similarly, the complexes described here could remove hydrogen peroxide, catalyzing the oxidation of an organic substrate and leading to an enhancement of oxidative stress. Since all the catalytic measurements made so far were in the absence of an oxidizable substrate (excluding the catalyst itself), it is important to also verify this phenomenon. […] This variation in absorbance was monitored for 18 h via UV–Vis spectroscopy. […]
Figure S52: A) UV-vis spectra of [Cu2(L-RNH2)(H2O)2](ClO4)3 in a CAT assay measured every 10 minutes and centered at 450 nm. […] The arrow indicates the absorbance trend over time. B) Oxygen evolution (blue line) and absorbance at 244 nm (green dots) versus time.
For the peroxidase-like activity the variation of absorbance over time was monitored via UV-vis spectroscopy. The substrate OPD (o-phenylenediamine) was oxidized to DAP (2,3-diaminephenazine) by H2O2 in the presence of copper ions, leading to an increase of absorbance at 418 nm. […] The kinetic was recorded in a quartz cuvette with an optical path of 1 cm for 18h (acquiring a spectrum every 20 minutes) at 25°C. […]

[3] = Potentiometric titration of the Cu(II)/L-CH3 system (constants of in situ-formed complexes); format: binding; conditions: for logβi of in situ-formed Cu(II) complex species: overall constant, Cu(II):L 1:1 and 2:1, DMSO 5% (v/v)/H2O (HCl/KCl); for logKi of in situ-formed Cu(II) complex species: stepwise protonation constant
Protocol: The next step was the analysis of the system with L-CH3 and Cu(II). For a better investigation of the binging abilities of the L-CH3 ligand, the titration was performed both for the Cu(II):L-CH3 molar ratio = 1:1 and for 2:1. The overall (logβi) and stepwise (logKi) protonation constants of in situ-formed complexes are collected in Table 2. Depending on pH, L-CH3 forms mono- and di-nuclear complexes with Cu(II) ions, their relative abundance depending on the metal-to-ligand molar ratio.
Potentiometric measurements were carried out using the Metrohm pH-meter system (Herisau, Switzerland) with a Metrohm semi-micro combination electrode at 25 °C, calibrated in a hydrogen ion concentration using HCl. The ligands were dissolved in DMSO (5% v/v/H2O (HCl/KCl)) in order to obtain a concentration of 1 mM. The titrant (KOH 0.1M) was added with a micrometric syringe at 298 K in the pH range of 2.5–11.5 in an argon atmosphere. The stability constants and stoichiometry of the complexes were calculated using the titration curves and the SUPERQUAD and HYPERQUAD [47, 48].

[4] = cited from earlier work

Row | Compound | logβi of in situ-formed Cu(II) complex species [3] | logKi of in situ-formed Cu(II) complex species [3] | other results
1 | NCCc1cc(CN(Cc2ccccn2)Cc2ccccn2)c(O)c(CN(Cc2ccccn2)Cc2ccccn2)c1 [HL-RNH2] | – | – | Kbind [1]: > 10^12 M^−2
2 | O.O.O.O.O.O.[Cu+2].[O-][Cl+3]([O-])([O-])[O-].[O-][Cl+3]([O-])([O-])[O-] [Cu(ClO4)2, copper perchlorate] | – | – | peroxidase-like (pro-oxidant) activity, Abs at 418 nm vs time [2]: much higher
3 | Cc1cc(CN(Cc2ccccn2)Cc2ccccn2)c([O-])c(CN(Cc2ccccn2)Cc2ccccn2)c1.[Cu+2] [[CuL]^+] | 10.20 ± 0.03 | 9.58 | –
4 | Cu/Zn-SOD(human): native Cu/Zn superoxide dismutase enzyme | – | – | log(kSOD) [4]: 9.30
5 | Cc1cc(CN(Cc2ccccn2)Cc2ccccn2)c([O-])c(CN(Cc2ccccn2)Cc2ccccn2)c1.[Cu+2].[Cu+2] [[Cu2L]^3+] | 15.50 ± 0.03 | 9.26 | –
6 | Cc1cc(CN(Cc2ccccn2)Cc2ccccn2)c(O)c(CN(Cc2ccccn2)Cc2ccccn2)c1.[Cu+2] [[CuHL]^2+] | 17.02 ± 0.03 | 6.82 | –
